# Results from ChEMBL document CHEMBL1154382, “Preliminary SAR analysis of novel antiproliferative N(6),5'-bis-ureidoadenosine derivatives” (2009).
# Experiments:
# Type in all cases: functional
# Settings in all cases: values are per cent of control
# CCRF-CEM = test: Antiproliferative activity against human CCRF-CEM cells at 10 uM assessed as cell growth inhibition relative to control
# HL-60(TB) = test: Antiproliferative activity against human HL-60(TB) cells at 10 uM assessed as cell growth inhibition relative to control
# K562 = test: Antiproliferative activity against human K562 cells at 10 uM assessed as cell growth inhibition relative to control
# MOLT-4 = test: Antiproliferative activity against human MOLT4 cells at 10 uM assessed as cell growth inhibition relative to control
# [1] = Antiproliferative activity against human […] cells at 10 uM assessed as cell growth inhibition relative to control
# A549 = test: Antiproliferative activity against human A549 cells at 10 uM assessed as cell growth inhibition relative to control
# EKVX = test: Antiproliferative activity against human EKVX cells at 10 uM assessed as cell growth inhibition relative to control
# PC-3 = test: Antiproliferative activity against human PC3 cells at 10 uM assessed as cell growth inhibition relative to control
# HOP-62 = test: Antiproliferative activity against human HOP62 cells at 10 uM assessed as cell growth inhibition relative to control
# HOP-92 = test: Antiproliferative activity against human HOP92 cells at 10 uM assessed as cell growth inhibition relative to control
# NCI-H226 = test: Antiproliferative activity against human NCI-H226 cells at 10 uM assessed as cell growth inhibition relative to control
# NCI-H23 = test: Antiproliferative activity against human NCI-H23 cells at 10 uM assessed as cell growth inhibition relative to control
# NCI-H322M = test: Antiproliferative activity against human NCI-H322M cells at 10 uM assessed as cell growth inhibition relative to control
# NCI-H460 = test: Antiproliferative activity against human NCI-H460 cells at 10 uM assessed as cell growth inhibition relative to control
# NCI-H522 = test: Antiproliferative activity against human NCI-H522 cells at 10 uM assessed as cell growth inhibition relative to control
# COLO 205 = test: Antiproliferative activity against human COLO205 cells at 10 uM assessed as cell growth inhibition relative to control
# HCC 2998 = test: Antiproliferative activity against human HCC2998 cells at 10 uM assessed as cell growth inhibition relative to control
# HCT-116 = test: Antiproliferative activity against human HCT116 cells at 10 uM assessed as cell growth inhibition relative to control
# HCT-15 = test: Antiproliferative activity against human HCT15 cells at 10 uM assessed as cell growth inhibition relative to control
# HT-29 = test: Antiproliferative activity against human HT-29 cells at 10 uM assessed as cell growth inhibition relative to control
# KM12 = test: Antiproliferative activity against human KM12 cells at 10 uM assessed as cell growth inhibition relative to control
# SW-620 = test: Antiproliferative activity against human SW620 cells at 10 uM assessed as cell growth inhibition relative to control
# LOX IMVI = test: Antiproliferative activity against human LOXIMVI cells at 10 uM assessed as cell growth inhibition relative to control
# Malme-3M = test: Antiproliferative activity against human MALME-3M cells at 10 uM assessed as cell growth inhibition relative to control
# M14 = test: Antiproliferative activity against human M14 cells at 10 uM assessed as cell growth inhibition relative to control
# SK-MEL-2 = test: Antiproliferative activity against human SK-MEL-2 cells at 10 uM assessed as cell growth inhibition relative to control
# SK-MEL-28 = test: Antiproliferative activity against human SK-MEL-28 cells at 10 uM assessed as cell growth inhibition relative to control
# SK-MEL-5 = test: Antiproliferative activity against human SK-MEL-5 cells at 10 uM assessed as cell growth inhibition relative to control
# UACC-257 = test: Antiproliferative activity against human UACC257 cells at 10 uM assessed as cell growth inhibition relative to control
# UACC-62 = test: Antiproliferative activity against human UACC62 cells at 10 uM assessed as cell growth inhibition relative to control
# SF-268 = test: Antiproliferative activity against human SF268 cells at 10 uM assessed as cell growth inhibition relative to control
# SF-295 = test: Antiproliferative activity against human SF295 cells at 10 uM assessed as cell growth inhibition relative to control
# SF-539 = test: Antiproliferative activity against human SF539 cells at 10 uM assessed as cell growth inhibition relative to control
# SNB-19 = test: Antiproliferative activity against human SNB19 cells at 10 uM assessed as cell growth inhibition relative to control
# SNB-75 = test: Antiproliferative activity against human SNB75 cells at 10 uM assessed as cell growth inhibition relative to control
# U-251 = test: Antiproliferative activity against human U251 cells at 10 uM assessed as cell growth inhibition relative to control
# IGROV-1 = test: Antiproliferative activity against human IGROV1 cells at 10 uM assessed as cell growth inhibition relative to control
# OVCAR-3 = test: Antiproliferative activity against human OVCAR-3 cells at 10 uM assessed as cell growth inhibition relative to control
# OVCAR-4 = test: Antiproliferative activity against human OVCAR4 cells at 10 uM assessed as cell growth inhibition relative to control
# OVCAR-5 = test: Antiproliferative activity against human OVCAR5 cells at 10 uM assessed as cell growth inhibition relative to control
# OVCAR-8 = test: Antiproliferative activity against human OVCAR8 cells at 10 uM assessed as cell growth inhibition relative to control
# SK-OV-3 = test: Antiproliferative activity against human SKOV3 cells at 10 uM assessed as cell growth inhibition relative to control
# 786-0 = test: Antiproliferative activity against human 786-0 cells at 10 uM assessed as cell growth inhibition relative to control
# A498 = test: Antiproliferative activity against human A498 cells at 10 uM assessed as cell growth inhibition relative to control
# ACHN = test: Antiproliferative activity against human ACHN cells at 10 uM assessed as cell growth inhibition relative to control
# CAKI-1 = test: Antiproliferative activity against human Caki1 cells at 10 uM assessed as cell growth inhibition relative to control
# RXF 393 = test: Antiproliferative activity against human RXF393 cells at 10 uM assessed as cell growth inhibition relative to control
# SN12C = test: Antiproliferative activity against human SN12C cells at 10 uM assessed as cell growth inhibition relative to control
# TK-10 = test: Antiproliferative activity against human TK10 cells at 10 uM assessed as cell growth inhibition relative to control
# UO-31 = test: Antiproliferative activity against human UO31 cells at 10 uM assessed as cell growth inhibition relative to control
# BT-549 = test: Antiproliferative activity against human BT549 cells at 10 uM assessed as cell growth inhibition relative to control
# [2] = Antiproliferative activity against human Hs 578T cells at 10 uM assessed as cell growth inhibition relative to control
# MCF7 = test: Antiproliferative activity against human MCF7 cells at 10 uM assessed as cell growth inhibition relative to control
# MDA-MB-231 = test: Antiproliferative activity against human MDA-MB-231 cells at 10 uM assessed as cell growth inhibition relative to control
# MDA-MB-468 = test: Antiproliferative activity against human MDA-MB-468 cells at 10 uM assessed as cell growth inhibition relative to control
# T47D = test: Antiproliferative activity against human T47D cells at 10 uM assessed as cell growth inhibition relative to control
# DU-145 = test: Antiproliferative activity against human DU145 cells at 10 uM assessed as cell growth inhibition relative to control
compound,measurement,setting,value
CCOC(=O)C[C@H]1[C@@H](O[Si](C)(C)C(C)(C)C)[C@H](n2cnc3c(NC(=O)Nc4ccccc4)ncnc32)O[C@@H]1CN=[N+]=[N-],"growth, % of control at 10 µM",CCRF-CEM,63%
same,"growth, % of control at 10 µM",HL-60(TB),51%
same,"growth, % of control at 10 µM",K562,72%
same,"growth, % of control at 10 µM",MOLT-4,79%
same,"growth, % of control at 10 µM",[1],75%
same,"growth, % of control at 10 µM",A549,103%
same,"growth, % of control at 10 µM",EKVX,89%
same,"growth, % of control at 10 µM",PC-3,64%
same,"growth, % of control at 10 µM",HOP-62,98%
same,"growth, % of control at 10 µM",HOP-92,100%
same,"growth, % of control at 10 µM",NCI-H226,62%
same,"growth, % of control at 10 µM",NCI-H23,97%
same,"growth, % of control at 10 µM",NCI-H322M,99%
same,"growth, % of control at 10 µM",NCI-H460,104%
same,"growth, % of control at 10 µM",NCI-H522,90%
same,"growth, % of control at 10 µM",COLO 205,114%
same,"growth, % of control at 10 µM",HCC 2998,121%
same,"growth, % of control at 10 µM",HCT-116,82%
same,"growth, % of control at 10 µM",HCT-15,84%
same,"growth, % of control at 10 µM",HT-29,104%
same,"growth, % of control at 10 µM",KM12,101%
same,"growth, % of control at 10 µM",SW-620,101%
same,"growth, % of control at 10 µM",LOX IMVI,96%
same,"growth, % of control at 10 µM",Malme-3M,97%
same,"growth, % of control at 10 µM",M14,101%
same,"growth, % of control at 10 µM",SK-MEL-2,91%
same,"growth, % of control at 10 µM",SK-MEL-28,116%
same,"growth, % of control at 10 µM",SK-MEL-5,104%
same,"growth, % of control at 10 µM",UACC-257,88%
same,"growth, % of control at 10 µM",UACC-62,83%
same,"growth, % of control at 10 µM",SF-268,95%
same,"growth, % of control at 10 µM",SF-295,94%
same,"growth, % of control at 10 µM",SF-539,89%
same,"growth, % of control at 10 µM",SNB-19,92%
same,"growth, % of control at 10 µM",SNB-75,73%
same,"growth, % of control at 10 µM",U-251,95%
same,"growth, % of control at 10 µM",IGROV-1,93%
same,"growth, % of control at 10 µM",OVCAR-3,111%
same,"growth, % of control at 10 µM",OVCAR-4,66%
same,"growth, % of control at 10 µM",OVCAR-5,107%
same,"growth, % of control at 10 µM",OVCAR-8,98%
same,"growth, % of control at 10 µM",SK-OV-3,101%
same,"growth, % of control at 10 µM",786-0,89%
same,"growth, % of control at 10 µM",A498,121%
same,"growth, % of control at 10 µM",ACHN,92%
same,"growth, % of control at 10 µM",CAKI-1,87%
same,"growth, % of control at 10 µM",RXF 393,111%
same,"growth, % of control at 10 µM",SN12C,81%
same,"growth, % of control at 10 µM",TK-10,103%
same,"growth, % of control at 10 µM",UO-31,83%
same,"growth, % of control at 10 µM",BT-549,100%
same,"growth, % of control at 10 µM",[2],92%
same,"growth, % of control at 10 µM",MCF7,85%
same,"growth, % of control at 10 µM",MDA-MB-231,95%
same,"growth, % of control at 10 µM",MDA-MB-468,95%
same,"growth, % of control at 10 µM",T47D,73%
same,"growth, % of control at 10 µM",DU-145,105%
